According to patent US9198426B2, “Use of 5 pyridin-4-yl-1,3-thiazoles for controlling phytopathogenic fungi” (Bayer Intellectual Property GmbH, priority 2008, dated 2015):
Marks after values point to notes of the source that are not given here.

What was measured:
physchem = assay type: physicochemical
Fusarium proliferatum = test: Production of fumonisin FB1 by Fusarium proliferatum (microtitre plates); assay type: cell-based; conditions: 120 h, 5 days, 20° C., HPLC-MS/MS
Fusarium graminearum = test: microbe, parasite or virus in culture; assay type: cell-based; conditions: 168 h, read-out: activity in the inhibition of DON/AcDON production

Compound | log p (physchem; pH 2.7) | log p (physchem; pH 7.8) | further results
O=C(c1ccc(Cl)s1)C(Br)c1ccncc1 (centres unmarked) [2-Bromo-1-(5-chloro-2-thienyl)-2-(pyridin-4-yl)ethanone] | – | – | chromatographic logP (physchem; pH 2.7): 2.18
CCc1nc(-c2ccc(F)cc2)c(-c2ccnc(N)c2)s1 [Ex. 35, 4-[2-Ethyl-4-(4-fluorophenyl)-1,3-thiazol-5-yl]pyridine-2-amine] | – | – | chromatographic logP (physchem; pH 2.7): 1.29
CCc1nc(-c2ccc(F)cc2)c(-c2ccncc2)s1 [Ex. 41, 4-[2-Ethyl-4-(4-fluorophenyl)-1,3-thiazol-5-yl]pyridine] | – | – | inhibition at 50 µM (Fusarium proliferatum): > 70%; inhibition at 50 µM (Fusarium graminearum): > 70%; chromatographic logP (physchem; pH 2.3): 2.01; chromatographic logP (physchem; pH 7.8): 2.89
CCc1nc(-c2ccc(F)cc2)c(-c2ccnc(Cl)c2)s1 [Ex. 58, 2-Chloro-4-[2-ethyl-4-(4-fluorophenyl)-1,3-thiazol-5-yl]pyridine] | – | – | chromatographic logP (physchem; pH 2.7): 4.07; chromatographic logP (physchem; pH 7.8): 4.1
CCc1nc(-c2ccc(F)cc2)c(-c2ccnc(NCc3ccccc3)c2)s1 [Ex. 59, N-Benzyl-4-[2-ethyl-4-(4-fluorophenyl)-1,3-thiazol-5-yl]pyridine-2-amine] | – | – | chromatographic logP (physchem; pH 2.7): 2.32
CCc1nc(-c2ccc(F)cc2)c(-c2ccnc(NC3CC3)c2)s1 [Ex. 72, N-Cyclopropyl-4-[2-ethyl-4-(4-fluorophenyl)-1,3-thiazol-5-yl]pyridine-2-amine] | – | – | chromatographic logP (physchem; pH 2.7): 1.74; chromatographic logP (physchem; pH 7.8): 3.61
CCc1nc(-c2ccc(F)cc2)c(-c2ccnc(C(=O)NC3CC3)c2)s1 [Ex. 75, N-Cyclopropyl-4-[2-ethyl-4-(4-fluorophenyl)-1,3-thiazol-5-yl]pryridine-2-carboxamide] | 3.46^[b] | 3.5^[c]; | –
CCc1nc(-c2ccc(F)cc2)c(-c2ccnc(N(C(C)=O)C3CC3)c2)s1 [Ex. 80, N-Cyclopropyl-N-{4-[2-ethyl-4-(4-fluorophenyl)-1,3-thiazol-5-yl]pyridin-2-yl}acetamide] | – | – | chromatographic logP (physchem; pH 2.7): 2.81; chromatographic logP (physchem; pH 7.8): 2.88
CCCC(=O)Nc1cc(-c2sc(CC)nc2-c2ccc(F)cc2)ccn1 [Ex. 83, N-{4-[2-Ethyl-4-(4-fluorophenyl)-1,3-thiazol-5-yl]pyridin-2-}butanamide] | 3.45^[b] | 3.58^[c]; | –
CCc1nc(-c2ccc(F)cc2)c(-c2ccnc(C)c2)s1 [Ex. 96, 4-[2-Ethyl-4-(4-fluorophenyl)-1,3-thiazol-5-yl]-2-methylpyridine] | – | – | chromatographic logP (physchem; pH 2.7): 1.68
Cc1cc(-c2sc(C(C)C)nc2-c2ccc(F)cc2)ccn1 [Ex. 100, 4-[4-(4-Fluorophenyl)-2-isopropyl-1,3-thiazol-5-yl]-2-methylpyridine] | – | – | chromatographic logP (physchem; pH 2.7): 2.1; chromatographic logP (physchem; pH 7.8): 4.06
CCc1nc(-c2ccc(Cl)s2)c(-c2ccncc2)s1 [compound 42] | 3.06^[b] | 3.88^[c]; | –
CC(C)c1nc(-c2ccc(F)cc2)c(-c2ccncc2)s1 [compound 43] | 2.56^[b] | 3.71^[c]; | –
Cc1nc(-c2ccc(F)cc2)c(-c2ccncc2)s1 [compound 44] | 1.48^[b] | – | –
Fc1ccc(-c2nc(Cc3ccccc3)sc2-c2ccncc2)cc1 [compound 45] | 2.94^[b] | – | –
CC(C)(C)c1nc(-c2ccc(F)cc2)c(-c2ccncc2)s1 [compound 46] | 3.29^[b] | – | –
CCCCc1nc(-c2ccc(F)cc2)c(-c2ccncc2)s1 [compound 47] | 3.11^[b] | – | –
CCc1nc(-c2ccc(C)c(C)c2)c(-c2ccncc2)s1 [compound 48] | 2.49^[b] | – | –
CCc1nc(-c2cccc(C(F)(F)F)c2)c(-c2ccncc2)s1 [compound 49] | 3^[b] | – | –
CCc1nc(-c2ccc(F)cc2)c(-c2ccnc(NC(=O)c3ccc(C)cc3)c2)s1 [compound 50] | 4.48^[b] | – | –
CCc1nc(-c2ccc(F)cc2)c(-c2ccnc(NC(=O)C(C)(C)C)c2)s1 [compound 51] | 4.18^[b] | – | –
CCc1nc(-c2ccc(F)cc2)c(-c2ccnc(NC(=O)c3ccc(F)cc3)c2)s1 [compound 52] | 4.18^[b] | – | –

Compound | log p (physchem; pH 2.7) | log p (physchem; pH 7.8) | further results
CCc1nc(-c2ccc(F)cc2)c(-c2ccnc(NC(=O)c3ccc(OC)cc3)c2)s1 [compound 53] | 4.04^[b] | – | –
CCc1nc(-c2ccc(F)cc2)c(-c2ccnc(NC(=O)C3CCCCC3)c2)s1 [compound 54] | 4.54^[b] | – | –
CCc1nc(-c2ccc(F)cc2)c(-c2ccnc(NC(=O)CCc3ccccc3)c2)s1 [compound 55] | 4.23^[b] | – | –
CCc1nc(-c2ccc(F)cc2)c(-c2ccnc(NC(=O)c3cccs3)c2)s1 [compound 56] | 3.92^[b] | – | –
CCc1nc(-c2ccc(F)cc2)c(-c2ccnc(NC(=O)c3ccsc3)c2)s1 [compound 57] | 3.83^[b] | – | –
CCc1nc(-c2ccc(F)cc2)c(-c2ccnc(Nc3ccccc3)c2)s1 [compound 60] | 3.1^[b] | – | –
CCc1nc(-c2ccc(F)cc2)c(-c2ccnc(NC(C)c3ccccc3)c2)s1 (centres unmarked) [compound 61] | 2.39^[b] | – | –
CCc1nc(-c2ccc(F)cc2)c(-c2ccnc(NCCc3ccccc3)c2)s1 [compound 62] | 2.17^[b] | – | –
CCc1nc(-c2ccc(F)cc2)c(-c2ccnc(NC3CCCC3)c2)s1 [compound 63] | 1.94^[b] | – | –
CCc1nc(-c2ccc(F)cc2)c(-c2ccnc(N3CCCC3)c2)s1 [compound 64] | 2^[b] | – | –
CCc1nc(-c2ccc(F)cc2)c(-c2ccnc(NC(=O)OC(C)(C)C)c2)s1 [compound 65] | 4.63^[b] | – | –
CCCCc1nc(-c2ccc(F)cc2)c(-c2ccnc(NC(=O)c3ccccc3)c2)s1 [compound 66] | 5.07^[b] | – | –
CCc1nc(-c2ccc(F)cc2)c(-c2ccnc(N(C)C(=O)c3ccccc3)c2)s1 [compound 67] | 3.68^[b] | – | –
CCc1nc(-c2ccc(F)cc2)c(-c2ccnc(N(C)C(C)=O)c2)s1 [compound 68] | 2.71^[b] | – | –
CCc1nc(-c2ccccc2)c(-c2ccnc(NC(=O)c3ccccc3)c2)s1 [compound 69] | 3.91^[b] | – | –
CCc1nc(-c2ccc(F)cc2)c(-c2ccnc(NC(C)COC)c2)s1 (centres unmarked) [compound 70] | 1.78^[b] | – | –
CCc1nc(-c2ccc(F)cc2)c(-c2ccnc(NC(C)CO)c2)s1 (centres unmarked) [compound 71] | 1.44^[b] | – | –
CCc1nc(-c2ccc(F)cc2)c(-c2ccnc(C(=O)N(C)CC)c2)s1 [compound 73] | 2.81^[b] | 2.87^[c]; | –
C=CCNc1cc(-c2sc(CC)nc2-c2ccc(F)cc2)ccn1 [compound 74] | 1.67^[b] | 3.8^[c]; | –
CCNc1cc(-c2sc(CC)nc2-c2ccc(F)cc2)ccn1 [compound 76] | 1.54^[b] | 3.64^[c]; | –
CCc1nc(-c2ccc(F)cc2)c(-c2ccnc(NCC(C)O)c2)s1 (centres unmarked) [compound 77] | 1.44^[b] | 2.74^[c]; | –
CCc1nc(-c2ccc(F)cc2)c(-c2ccnc(NCC(C)OC)c2)s1 (centres unmarked) [compound 78] | 1.73^[b] | 3.67^[c]; | –

Compound | log p (physchem; pH 2.7) | log p (physchem; pH 7.8) | further results
CCc1nc(-c2ccc(F)cc2)c(-c2ccnc(NCC(F)F)c2)s1 [compound 79] | 2.39^[b] | 3.76^[c]; | –
CCc1nc(-c2ccc(F)cc2)c(-c2ccnc(NC(=O)COC)c2)s1 [compound 81] | 3.17^[b] | 3.21^[c]; | –
CCc1nc(-c2ccc(F)cc2)c(-c2ccnc(NC(=O)C(C)C)c2)s1 [compound 82] | 3.52^[b] | 3.66^[c]; | –
CCc1nc(-c2ccc(F)cc2)c(-c2ccnc(NC(=O)C3CCC3)c2)s1 [compound 84] | 3.68^[b] | 3.82^[c]; | –
CCOC(=O)Nc1cc(-c2sc(CC)nc2-c2ccc(F)cc2)ccn1 [compound 85] | 3.61^[b] | 3.69^[c]; | –
CCc1nc(-c2ccc(F)cc2)c(-c2ccnc(NC(=O)C3CC3)c2)s1 [compound 86] | 3.22^[b] | 3.37^[c]; | –
CCc1nc(-c2ccc(F)cc2)c(-c2ccnc(NC(=O)OC)c2)s1 [compound 87] | 3.14^[b] | 3.22^[c]; | –
Fc1ccc(-c2nc(C(F)F)sc2-c2ccncc2)cc1 [compound 88] | 2.48^[b] | 3.01^[c]; | –
Fc1ccc(-c2nc(C3CC3)sc2-c2ccncc2)cc1 [compound 89] | 2.16^[b] | 3.32^[c]; | –
C=C(C)C(=O)Nc1cc(-c2sc(CC)nc2-c2ccc(F)cc2)ccn1 [compound 90] | 3.6^[b] | 3.71^[c]; | –
CCc1nc(-c2ccc(F)cc2)c(-c2ccnc(NS(C)(=O)=O)c2)s1 [compound 91] | 2.36^[b] | 2.18^[c]; | –
CCc1nc(-c2ccc(F)cc2)c(-c2ccnc(N(S(C)(=O)=O)S(C)(=O)=O)c2)s1 [compound 92] | 3.23^[b] | 3.24^[c]; | –
CCc1nc(-c2ccc(F)cc2)c(-c2ccnc(N(C(=O)OC(C)C)C(=O)OC(C)C)c2)s1 [compound 93] | 4.5^[b] | 4.49^[c]; | –
CCc1nc(-c2ccc(F)cc2)c(-c2ccnc(NC(=O)OC(C)C)c2)s1 [compound 94] | 4.08^[b] | 4.18^[c]; | –
CCc1nc(-c2ccc(F)cc2)c(-c2ccnc(NC(=O)C3(C)CC3)c2)s1 [compound 95] | 3.89^[b] | 4.03^[c]; | –
CCc1nc(-c2ccc(F)cc2)c(-c2ccnc(N(C(C)=O)C(C)=O)c2)s1 [compound 97] | 2.95^[b] | 2.95^[c]; | –
CCc1nc(-c2ccc(F)cc2)c(-c2ccnc(NC(=O)CCl)c2)s1 [compound 98] | 3.29^[b] | 3.32^[c]; | –
CCc1nc(-c2ccc(F)cc2)c(-c2ccnc(NC(=O)CC(C)C)c2)s1 [compound 99] | 3.91^[b] | 4.04^[c]; | –
CCc1nc(-c2ccc(F)cc2)c(-c2ccnc(NC(C)C)c2)s1 [compound 101] | 1.73^[b] | 4.11^[c]; | –
C#CCN(C(C)=O)c1cc(-c2sc(CC)nc2-c2ccc(F)cc2)ccn1 [compound 102] | 3.03^[b] | 3.02^[c]; | –
CCc1nc(-c2cccs2)c(-c2ccncc2)s1 [compound 103] | 1.94^[b] | – | –
